# Measured values published in US11331328B2, “Compositions and methods for inhibiting antiapoptotic Bcl-2 proteins as anti-aging agents” (priority 2014, dated 2022).
# Tested on: IR-induced WI-38 SCs
# Experiment: Apoptosis analysis (Annexin V/PI flow cytometry)
# Assay type: cell-based, human
# Conditions: 1.25 μM ABT263, 24 h, with or without 20 μM Q-VD-OPh
# Protocol: Cells were seeded into a 6-well plate at 4-6×10^5 cells/well. […] The cells were harvested 24 h after treatment and resuspended in 1× annexin V binding buffer (BD Biosciences) at 1×10^6 cells/ml. An aliquot (100 μl) of the cell suspension was incubated with 5 μl of Annexin V-FITC (BD Biosciences) or PI (1 mg/ml) for 15 min at room temperature in the dark. After addition of 400 μl of 1× binding buffer, 10,000 cells per sample were analyzed by a BD LSR H flow cytometer (BD Biosciences).
smiles,measurement,value
"CC1(C)CCC(c2ccc(Cl)cc2)=C(CN2CCN(c3ccc(C(=O)NS(=O)(=O)c4ccc(N[C@H](CCN5CCOCC5)CSc5ccccc5)c(S(=O)(=O)C(F)(F)F)c4)cc3)CC2)C1 [ABT263, navitoclax]",apoptosis induction,"selectively killed SCs by inducing apoptosis, which was abrogated by QVD"
